Experimental data published in patent EP4603105A1, “PHARMACEUTICAL COMPOSITION CONTAINING CYCLIC COMPOUND HAVING SELECTIVE KRAS INHIBITORY EFFECT AGAINST HRAS AND NRAS” (CHUGAI SEIYAKU KABUSHIKI KAISHA, priority 2022, dated 2024).
*1 amine or outer side, *2 acyl side, *3 side chain or, on linkers, in order; H or OH if unused. Where a SMILES comes first, the peptide text is derived from it. Bridges are numbered along the chain shown (N, C = ends). [ ]: non-standard residue; d: D form. The star is where a group is joined. hPhe(3,5-F2-4-CF3) = N[C@@H](CCc1cc(F)c(C(F)(F)F)c(F)c1)C(=O)O; hPhe(3-Cl-4-CF3) = N[C@@H](CCc1ccc(C(F)(F)F)c(Cl)c1)C(=O)O; NPrPhe(4-CF3) = CCCN[C@@H](Cc1ccc(C(F)(F)F)cc1)C(=O)O; NMeGly(cPent) = CN[C@H](C(=O)O)C1CCCC1; Pro(4,4-F2) = O=C(O)[C@@H]1CC(F)(F)CN1; Pro(4S-Me) = C[C@@H]1CN[C@H](C(=O)O)C1; X3 = CCC[C@](C)(N[*:1])C(=O)[*:2]; Hyp = O=C(O)[C@@H]1C[C@@H](O)CN1; NMeD = CN[C@@H](CC(=O)O)C(=O)O; NMeL = CN[C@@H](CC(C)C)C(=O)O; Morpholide = C1CN(*)CCO1; Ac5c = NC1(C(=O)O)CCCC1; Aze = O=C(O)[C@@H]1CCN1; Ac4c = NC1(C(=O)O)CCC1; Sar = CNCC(=O)O

Key:
[1] = target: GDP-bound NRAS wild-type protein (Homo sapiens, UniProt P01111); assay: Binding to NRAS by surface plasmon resonance (SPR), KD and KD ratio to KRAS
Method in brief: (§1)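 GDP-bound biotin-Avi RAS captured at ~100–300 RU, 30°C, pH 7.4 HBS containing 10 µM GDP, 10 mM MgCl2, 1 mM DTT, 0.01% Tween 20 and 4% DMSO. KD by 1:1 fitting.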

HRAS wild-type protein = HRAS wild-type protein (Homo sapiens, UniProt P01112); assay: Binding to HRAS by surface plasmon resonance (SPR), KD and KD ratio to KRAS
Method in brief: as §1

[2] = test system: human lung cancer strain NCI-H441; type: cell-based
Method in brief: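 Readout: […] after the ATP-based reagent. Compound: serial dilutions in dimethyl sulfoxide.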

[3] = ratio of KD for GDP-bound NRAS wild-type protein to KD for KRAS
[4] = ratio of KD for HRAS wild-type protein to KD for KRAS
[5] = ratio of KD value for GDP-bound NRAS wild-type protein to KD value for KRAS (SPR)
[6] = ratio of KD value for HRAS wild-type protein to KD value for KRAS (SPR)
[7] = ratio of the KD value with respect to GDP-bound NRAS wild-type protein to the KD value with respect to KRAS
[8] = ratio of the KD value with respect to HRAS wild-type protein to the KD value with respect to KRAS

HRAS wild-type protein, sequence (P01112 whole entry): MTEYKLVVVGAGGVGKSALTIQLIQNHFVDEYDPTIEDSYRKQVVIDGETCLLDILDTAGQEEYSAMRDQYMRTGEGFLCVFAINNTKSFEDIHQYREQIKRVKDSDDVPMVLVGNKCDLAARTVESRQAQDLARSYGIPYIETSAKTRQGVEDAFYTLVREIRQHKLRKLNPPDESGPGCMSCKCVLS
GDP-bound NRAS wild-type protein, sequence (P01111 whole entry): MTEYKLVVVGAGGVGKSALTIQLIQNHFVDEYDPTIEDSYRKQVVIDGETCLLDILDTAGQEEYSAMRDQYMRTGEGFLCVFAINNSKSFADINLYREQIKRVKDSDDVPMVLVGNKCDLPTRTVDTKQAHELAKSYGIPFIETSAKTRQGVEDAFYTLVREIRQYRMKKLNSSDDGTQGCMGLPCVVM

Structure (SMILES)	NRAS /KRAS [1, 3]	HRAS /KRAS (HRAS wild-type protein; [4])	IC50 [2]	NRAS /KRAS [1, 5]	HRAS /KRAS (HRAS wild-type protein; [6])	NRAS /KRAS [1, 7]	HRAS /KRAS (HRAS wild-type protein; [8])
CCO[C@@H]1C[C@H]2C(=O)NC3(CCC3)C(=O)N(C)[C@@H](C3CCCC3)C(=O)N(C)[C@H](C(=O)N(C)CC)CC(=O)N(C)[C@@H](CC(C)C)C(=O)N[C@@H]([C@@H](C)CC)C(=O)N(C)CC(=O)N(C)[C@H]3C/C=C\CCN(C3=O)[C@@H](Cc3ccc(C(F)(F)F)cc3)C(=O)N(C)CC(=O)N[C@@H](CCc3ccc(C(F)(F)F)c(OC)c3)C(=O)N2C1 [PP2846]	AA (a compound having 20 or more is denoted as AA)	A (a compound having 10 or more and less than 20 is denoted as A)	5.1 nM	–	–	–	–
CC[C@H](C)[C@@H]1NC(=O)[C@H](CC)N(C)C(=O)C[C@@H](C(=O)N(C)CC)N(C)C(=O)[C@H](C2CCCC2)N(C)C(=O)C2(CC(C)(C)C2)NC(=O)[C@@H]2C[C@@H](C)CN2C(=O)[C@H](CCc2ccc(C(F)(F)F)c(OC)c2)NC(=O)CN(C)C(=O)[C@H](Cc2ccc(C)cc2)N2CC/C=C\C[C@@H](C2=O)N(C)C(=O)CN(C)C1=O [PP1870]	–	–	12.4 nM	A (a compound having 10 or more and less than 20 is denoted as A)	A (a compound having 10 or more and less than 20 is denoted as A)	–	–
CCCN1C(=O)[C@@H]2CCN2C(=O)CN(C)C(=O)[C@H]([C@@H](C)CC)NC(=O)[C@H](CC(C)C)N(C)C(=O)C[C@@H](C(=O)N2CCOCC2)N(C)C(=O)[C@H](C2CCCC2)N(C)C(=O)C2(CCC2)NC(=O)[C@@H]2CC(F)(F)CN2C(=O)[C@H](CCc2ccc(C(F)(F)F)c(Cl)c2)NC(=O)CN(C)C(=O)[C@@H]1Cc1ccc(C(F)(F)F)cc1 [PP0409] ([NMeL]I[Sar][Aze][NPrPhe(4-CF3)][Sar][hPhe(3-Cl-4-CF3)][Pro(4,4-F2)][Ac4c][NMeGly(cPent)][NMeD]-Morpholide; lactam N-11)	–	–	4.4 nM	–	–	C (A compound having a KD ratio of 0.1 or more and less than 3 is denoted as C)	C (A compound having a KD ratio of 0.1 or more and less than 3 is denoted as C)
CCCN1C(=O)[C@@H]2CCN2C(=O)CN(C)C(=O)[C@H]([C@@H](C)CC)NC(=O)[C@H](CC(C)C)N(C)C(=O)C[C@@H](C(=O)N2CCOCC2)N(C)C(=O)[C@H](C2CCCC2)N(C)C(=O)C2(CCCC2)NC(=O)[C@@H]2C[C@H](C)CN2C(=O)[C@H](CCc2ccc(C(F)(F)F)c(Cl)c2)NC(=O)CN(C)C(=O)[C@@H]1Cc1ccc(C(F)(F)F)cc1 [PP0457] ([NMeL]I[Sar][Aze][NPrPhe(4-CF3)][Sar][hPhe(3-Cl-4-CF3)][Pro(4S-Me)][Ac5c][NMeGly(cPent)][NMeD]-Morpholide; lactam N-11)	–	–	12.1 nM	–	–	C (A compound having a KD ratio of 0.1 or more and less than 3 is denoted as C)	B (a compound having 3 or more and less than 10 is denoted as B)
CCO[C@@H]1C[C@H]2C(=O)NC3(CCC3)C(=O)N(C)[C@@H](C3CCCC3)C(=O)N(C)[C@H](C(=O)N(C)C)CC(=O)N(C)[C@@H](CC(C)(C)C)C(=O)N[C@@H]([C@@H](C)CC)C(=O)N(C)CC(=O)N(C)[C@H]3C/C=C\CCN(C3=O)[C@@H](Cc3ccc(C(F)(F)F)cc3)C(=O)N(C)CC(=O)N[C@@H](CCc3cc(F)c(C(F)(F)F)c(F)c3)C(=O)N2C1 [PP1117]	A (a compound having 10 or more and less than 20 is denoted as A)	A (a compound having 10 or more and less than 20 is denoted as A)	16.5 nM	–	–	–	–
CCCOC[C@H]1C(=O)N[C@@H]([C@@H](C)CC)C(=O)N(C)CC(=O)N(C)[C@H]2C/C=C\CCN(C2=O)[C@@H](Cc2ccc(C(F)(F)F)cc2)C(=O)N(C)CC(=O)N[C@@H](CCc2ccc(C(F)(F)F)c(OC)c2)C(=O)N2C[C@@H](C)C[C@H]2C(=O)NC2(CC(C)(C)C2)C(=O)N(C)[C@@H](C2CCCC2)C(=O)N(C)[C@H](C(=O)N(C)CC)CC(=O)N1C [PP1995]	–	–	17.8 nM	–	–	A (a compound having 10 or more and less than 20 is denoted as A)	B (a compound having 3 or more and less than 10 is denoted as B)
CCO[C@@H]1C[C@H]2C(=O)NC3(CCC3)C(=O)N(C)[C@@H](C3CCCC3)C(=O)N(C)[C@H](C(=O)N3CCOCC3)CC(=O)N(C)[C@@H](CC(C)C)C(=O)N[C@@H](C3CC(F)(F)C3)C(=O)N(C)CC(=O)N(C)[C@H]3CCCCN(C3=O)[C@@H](Cc3ccc(C(F)(F)F)cc3)C(=O)N(C)CC(=O)N[C@@H](CCc3cc(F)c(C(F)(F)F)c(F)c3)C(=O)N2C1 [PP0807]	B (a compound having 3 or more and less than 10 is denoted as B)	B (a compound having 3 or more and less than 10 is denoted as B)	16.7 nM	–	–	–	–
C#CC[C@H]1C(=O)N[C@@H]([C@@H](C)CC)C(=O)N(C)CC(=O)N(C)[C@H]2C/C=C\CCN(C2=O)[C@@H](Cc2ccc(C(F)(F)F)cc2)C(=O)N(C)CC(=O)N[C@@H](CCc2ccc(C(F)(F)F)c(OC)c2)C(=O)N2C[C@H](OCC)C[C@H]2C(=O)NC2(CC(C)(C)C2)C(=O)N(C)[C@@H](C2CCCC2)C(=O)N(C)[C@H](C(=O)N(C)CC)CC(=O)N1C [PP2051]	–	–	6.9 nM	–	–	A (a compound having 10 or more and less than 20 is denoted as A)	A (a compound having 10 or more and less than 20 is denoted as A)
CCO[C@@H]1C[C@H]2C(=O)NC3(CC(C)(C)C3)C(=O)N(C)[C@@H](C3CCCC3)C(=O)N(C)[C@H](C(=O)N3CCCCC3)CC(=O)N(C)[C@H]3CCC/C=C/c4ccc(cc4)C[C@@H](C(=O)N(C)CC(=O)N[C@@H](CCc4ccc(Cl)c(Cl)c4)C(=O)N2C1)N1CC/C=C\C[C@@H](C1=O)N(C)C(=O)CN(C)C(=O)[C@H]([C@@H](C)CC)NC3=O [PP2578]	AA (a compound having 20 or more is denoted as AA)	A (a compound having 10 or more and less than 20 is denoted as A)	17.7 nM	–	–	–	–
CCCN(C)C(=O)[C@@H]1CC(=O)N(C)[C@@H](CC(F)F)C(=O)N[C@@H]([C@@H](C)CC)C(=O)N(C)CC(=O)N(C)[C@H]2C/C=C\CCN(C2=O)[C@@H](Cc2ccc(C(F)(F)F)cc2)C(=O)N(C)CC(=O)N[C@@H](CCc2cc(F)c(C(F)(F)F)c(F)c2)C(=O)N2C[C@H](OCC)C[C@H]2C(=O)NC2(CC(F)(F)C2)C(=O)N(C)[C@@H](C2CCCC2)C(=O)N1C [PP1733]	–	–	3.8 nM	A (a compound having 10 or more and less than 20 is denoted as A)	A (a compound having 10 or more and less than 20 is denoted as A)	–	–
CCCN1C(=O)CN(C)C(=O)CN(C)C(=O)[C@H]([C@@H](C)CC)NC(=O)[C@H](CC(C)C)N(C)C(=O)C[C@@H](C(=O)N2CCOCC2)N(C)C(=O)[C@H](C2CCCC2)N(C)C(=O)[C@](C)(CCC)NC(=O)[C@@H]2CCCN2C(=O)[C@H](CCc2cc(F)c(C(F)(F)F)c(F)c2)NC(=O)CN(C)C(=O)[C@@H]1Cc1ccc(C(F)(F)F)cc1 [PP0758] ([NMeL]I[Sar][Sar][NPrPhe(4-CF3)][Sar][hPhe(3,5-F2-4-CF3)]P[X3][NMeGly(cPent)][NMeD]-Morpholide; lactam N-11)	–	–	153 nM	–	–	B (a compound having 3 or more and less than 10 is denoted as B)	C (A compound having a KD ratio of 0.1 or more and less than 3 is denoted as C)
CCO[C@@H]1C[C@H]2C(=O)NC3(CC(C)(C)C3)C(=O)N(C)[C@@H](C(CC)CC)C(=O)N(C)[C@H](C(=O)N(C)C)CC(=O)N(C)[C@H]3CCC/C=C/c4ccc(cc4)C[C@@H](C(=O)N(C)CC(=O)N[C@@H](CCc4ccc(Cl)c(Cl)c4)C(=O)N2C1)N1CC/C=C\C[C@@H](C1=O)N(C)C(=O)CN(C)C(=O)[C@H]([C@@H](C)CC)NC3=O [PP2580]	AA (a compound having 20 or more is denoted as AA)	A (a compound having 10 or more and less than 20 is denoted as A)	7.9 nM	–	–	–	–
CCCN1C(=O)CN(C)C(=O)[C@@H]2CCN2C(=O)[C@H]([C@@H](C)CC)NC(=O)[C@H](CC(C)C)N(C)C(=O)C[C@@H](C(=O)N2CCOCC2)N(C)C(=O)[C@H](C2CCCC2)N(C)C(=O)C2(CCCC2)NC(=O)[C@@H]2C[C@@H](OCC)CN2C(=O)[C@H](CCc2ccc(C(F)(F)F)c(Cl)c2)NC(=O)CN(C)C(=O)[C@@H]1Cc1ccc(C(F)(F)F)cc1 [PP0310] ([NMeL]I[Aze][Sar][NPrPhe(4-CF3)][Sar][hPhe(3-Cl-4-CF3)][Hyp](Et)[Ac5c][NMeGly(cPent)][NMeD]-Morpholide; lactam N-11)	B (a compound having 3 or more and less than 10 is denoted as B)	C (A compound having a KD ratio of 0.1 or more and less than 3 is denoted as C)	13.8 nM	–	–	–	–
CCO[C@@H]1C[C@H]2C(=O)NC3(CCC3)C(=O)N(C)[C@@H](C3CCCC3)C(=O)N(CCC3CCCC3)[C@H](C(=O)N3CCOCC3)CC(=O)N(C)[C@@H](CC)C(=O)N[C@@H]([C@@H](C)CC)C(=O)N(C)CC(=O)N(C)[C@H]3C/C=C\CCN(C3=O)[C@@H](Cc3ccc(C(F)(F)F)cc3)C(=O)N(C)CC(=O)N[C@@H](CCc3cc(F)c(C(F)(F)F)c(F)c3)C(=O)N2C1 [PP0981]	AA (a compound having 20 or more is denoted as AA)	A (a compound having 10 or more and less than 20 is denoted as A)	797 nM	–	–	–	–
CCO[C@@H]1C[C@H]2C(=O)NC3(CC(C)(C)C3)C(=O)N(C)[C@@H](C3CCCC3)C(=O)N(C)[C@H](C(=O)N(C)C)CC(=O)N(C)[C@H]3CCCC/C=C/c4ccc(cc4)C[C@@H](C(=O)N(C)CC(=O)N[C@@H](CCc4ccc(C(F)(F)F)c(OC)c4)C(=O)N2C1)N1CC/C=C\C[C@@H](C1=O)N(C)C(=O)CN(C)C(=O)[C@H]([C@@H](C)CC)NC3=O [PP1832]	–	–	2.5 nM	B (a compound having 3 or more and less than 10 is denoted as B)	B (a compound having 3 or more and less than 10 is denoted as B)	–	–
